Experiment [1] addresses T1, murine Syk tyrosine kinase protein (GST:Syk 6-242) (Mus musculus, UniProt P48025).
T1 construct: made in house
In words: ADA method: displacement of the binding of scFv G4G11 with Syk (ELISA). The following applies: small molecules at 10 μM, scFv G4G11 100 nM; read-out: In vit. inhib.: mean inhibition % of the binding of scFv G4G11 with Syk in the ADA method. In outline: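 GST:Syk 6-242 (murine) was immobilised at 10 μg ml^−1 and pre-incubated 1 h at ambient temperature with compounds at 10 μM final in PBS. scFv G4G11 was then added at 100 nM for 1 h. Bound scFv was detected via its C-terminal c-myc tag with HRP-9E10, and % inhibition was taken from signals with versus without compound.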

Another experiment concerns RBL-2H3 cells. In words: cells. Format: cell-based, rat. The following applies: Rattus norvegicus; RBL-2H3 cells; read-out: Degran. IC50: concentration inhibiting mast cell degranulation by 50%. In outline: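 RBL-2H3 rat basophils sensitized 12-16 h with anti-DNP IgE (0.5 μg/ml), pretreated 90 min at 37° C with compound (DMF 0.25% vehicle), then stimulated 45 min with DNP-BSA (50 ng ml^−1) or ionomycin (1.5 μM). Degranulation read as β-hexosaminidase release.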

Molecules are shown by their SMILES. In brackets after ≈: the same amount, converted by molar mass.

As usually defined, the inhibition is how much of the control response was suppressed.

On to `COC(=O)c1ccc(NC(=O)CN(c2cccc(OC)c2)S(=O)(=O)c2ccccc2)cc1` [Molecule 81], for which the inhibition at 10 µM in experiment [1] is 20%. For the same compound, the IC50 in the experiment with RBL-2H3 cells was greater than 10 µg/mL.

As to `O=C(CCCN1C(=O)c2ccccc2C1=O)Nc1sc2c(c1C(=O)NCC1CCCO1)CCC2` (stereo not shown) [Molecule 30], in experiment [1], the inhibition at 10 µM stood at 51%. The IC50 with RBL-2H3 cells was greater than 10 µg/mL.

For `COc1cccc2cc(C(=O)C3=C(O)C(=O)N(CCCn4ccnc4)C3c3ccccn3)oc12` (stereo not shown) [Molecule 64], in experiment [1], the inhibition at 10 µM came out at 37.5%. Besides, in the experiment on RBL-2H3 cells, the IC50 is greater than 10 µg/mL.

In the case of `COc1ccc(C2C(C(=O)c3ccco3)=C(O)C(=O)N2CCN2CCOCC2)cc1OC` (stereo not shown) [Molecule 35, 5-(3,4-dimethoxyphenyl)-4-(2-furoyl)-3-hydroxy-1-[2-(4-morpholinyl)ethyl]-1,5-dihydro-2H-pyrrol-2-one], the inhibition at 10 µM in experiment [1] was found to be 50%. The IC50 in the experiment on RBL-2H3 cells was greater than 10 µg/mL.

Regarding `COc1ccc(C2C(C(=O)c3cccs3)=C(O)C(=O)N2CCN2CCOCC2)cc1OC` (stereo not shown) [Molecule 38, 5-(3,4-dimethoxyphenyl)-3-hydroxy-1-[2-(4-morpholinyl)ethyl]-4-(2-thienylcarbonyl)-1,5-dihydro-2H-pyrrol-2-one], the inhibition at 10 µM in experiment [1] turned out to be 50%. In addition, the IC50 in the experiment on RBL-2H3 cells is greater than 10 µg/mL.

Regarding `COC(=O)c1sc(N2C(=O)C(O)=C(C(=O)c3ccccc3)C2c2ccc(C)cc2)nc1C` (stereo not shown) [Molecule 16, methyl 2-[3-benzoyl-4-hydroxy-2-(4-methylphenyl)-5-oxo-2,5-dihydro-1H-pyrrol-1-yl]-4-methyl-1,3-thiazole-5-carboxylate], the inhibition at 10 µM in experiment [1] was 67%. Besides, in the experiment with RBL-2H3 cells, the IC50 was greater than 10 µg/mL.

Turning to `COc1ccc(C2C(C(=O)c3ccc(Cl)cc3)=C(O)C(=O)N2CCN2CCOCC2)cc1OC` (stereo not shown) [Molecule 27, 4-(4-chlorobenzoyl)-5-(3,4-dimethoxyphenyl)-3-hydroxy-1-[2-(4-morpholinyl)ethyl]-1,5-dihydro-2H-pyrrol-2-one], the inhibition at 10 µM in experiment [1] stood at 55%. In addition, the IC50 in the experiment with RBL-2H3 cells was greater than 10 µg/mL.

Regarding `Cc1ccc(-n2c3c(cc(C(=O)NC4CC(C)(C)NC(C)(C)C4)c2=O)C(=O)CC(C)(C)C3)cc1` [Molecule 22, 7,7-dimethyl-1-(4-methylphenyl)-2,5-dioxo-N-(2,2,6,6-tetramethyl-4-piperidinyl)-1,2,5,6,7,8-hexahydro-3-quinoline carboxamide], the inhibition at 10 µM in experiment [1] was 57.5%. Also, the IC50 in the experiment on RBL-2H3 cells was greater than 10 µg/mL.

As to `Cc1cc(C)c(OCC(=O)N2CCN(C(=O)COc3c(C)cc(C)cc3C)CC2)c(C)c1` [Molecule 58, 1,4-bis [(mesityloxy)acetyl] piperazine], in experiment [1], the inhibition at 10 µM came to 40%. In the experiment on RBL-2H3 cells, the IC50 was roughly 10 µg/mL (≈ 22.8 µM).

As to `Cn1c(SCC(=O)NCC2CCCO2)nnc1-c1ccc(NC(=O)c2ccccc2Cl)cc1` (stereo not shown) [Molecule 47], the inhibition at 10 µM in experiment [1] was found to be 47.5%. The IC50 in the experiment with RBL-2H3 cells is greater than 10 µg/mL.

For the compound `Cc1ccc(S(=O)(=O)N(CC(=O)N2CCN(Cc3ccccc3)CC2)c2ccc(C)c(C)c2)cc1` [Molecule 48, N-[2-(4-benzyl-1-piperazinyl)-2-oxoethyl]-N-(3,4-dimethylphenyl)-4-methylbenzenesulphonamide], in experiment [1], the inhibition at 10 µM turned out to be 47%. For the same compound, the IC50 in the experiment on RBL-2H3 cells is greater than 10 µg/mL.

For `COc1cc(C2C(C(=O)c3ccc(Cl)cc3)=C(O)C(=O)N2CCCN2CCOCC2)cc(OC)c1OC` (stereo not shown) [Molecule 25, 4-(4-chlorobenzoyl)-3-hydroxy-1-[3-(4-morpholinyl)propyl]-5-(3,4,5-trimethoxyphenyl)-1,5-dihydro-2H-pyrrol-2-one], in experiment [1], the inhibition at 10 µM was determined as 56.5%. Besides, in the experiment on RBL-2H3 cells, the IC50 is greater than 10 µg/mL.

In the case of `CC(C)c1ccc(C2C(C(=O)c3ccc(F)cc3)=C(O)C(=O)N2CCCN2CCOCC2)cc1` (stereo not shown) [Molecule 19, 4-(4-fluorobenzoyl)-3-hydroxy-5-(4-isopropylphenyl)-1-[3-(4-morpholinyl)propyl]-1,5-dihydro-2H-pyrrol-2-one], in experiment [1], the inhibition at 10 µM was 60%. For the same compound, the IC50 with RBL-2H3 cells was greater than 10 µg/mL.

For the compound `CCOC(=O)C1=C(c2ccccc2)NC(SCC(=O)Nc2cccc(OC)c2)=C(C#N)C1c1ccco1` (stereo not shown) [Molecule 55, ethyl 5-cyano-4-(2-furyl)-6-({2-[(3-methoxyphenyl)amino]-2-oxoethyl}thio)-2-phenyl-1,4-dihydro-3-pyridine carboxylate], the inhibition at 10 µM in experiment [1] is 42.5%. Also, the IC50 in the experiment with RBL-2H3 cells was roughly 5 µg/mL (≈ 9.7 µM).

In the case of `CN(C)S(=O)(=O)c1ccc(C(=O)C2=C(O)C(=O)N(CCCN3CCOCC3)C2c2cccnc2)cc1` (stereo not shown) [Molecule 65, 4-{[4-hydroxy-1-[3-(4-morpholinyl)propyl]-5-oxo-2-(3-pyridinyl)-2,5-dihydro-1H-pyrrol-3-yl]carbonyl}-N,N-dimethylbenzenesulphonamide], the inhibition at 10 µM in experiment [1] is 37%. In addition, in the experiment with RBL-2H3 cells, the IC50 is greater than 10 µg/mL.

As for `Cc1ccc(-c2nnc(N3CCN(C(=O)CSc4nc(C)cc(C)n4)CC3)c3ccccc23)cc1` [Molecule 87, 1-(4-{[(4,6-dimethyl-2-pyrimidinyl)thio]acetyl}-1-piperazinyl)-4-(4-methylphenyl) phthalazine], in experiment [1], the inhibition at 10 µM turned out to be 11%. The IC50 in the experiment with RBL-2H3 cells was roughly 5 µg/mL (≈ 10.3 µM).

As for `COc1ccc(C(=O)C2=C(O)C(=O)N(CCN3CCOCC3)C2c2cccnc2)c(C)c1` (stereo not shown) [Molecule 14, 3-hydroxy-4-(4-methoxy-2-methylbenzoyl)-1-[2-(4-morpholinyl)ethyl]-5-(3-pyridinyl)-1,5-dihydro-2H-pyrrol-2-one], the inhibition at 10 µM in experiment [1] was found to be 67.5%. Further, the IC50 with RBL-2H3 cells was greater than 10 µg/mL.

Take `COc1cccc(C2C(C(=O)c3ccc(F)cc3)=C(O)C(=O)N2CCCN2CCOCC2)c1` (stereo not shown) [Molecule 24, 4-(4-fluorobenzoyl)-3-hydroxy-5-(3-methoxyphenyl)-1-[3-(4-morpholinyl)propyl]-1,5-dihydro-2H-pyrrol-2-one]: the inhibition at 10 µM in experiment [1] is 57%. For the same compound, the IC50 in the experiment with RBL-2H3 cells was greater than 10 µg/mL.

As for `CN(C)CCCN1C(=O)C(O)=C(C(=O)c2ccc(S(=O)(=O)N(C)C)cc2)C1c1ccc(Cl)c(Cl)c1` (stereo not shown) [Molecule 50, 4-({2-(3,4-dichlorophenyl)-1-[3-(dimethylamino)propyl]-4-hydroxy-5-oxo-2,5-dihydro-1H-pyrrol-3-yl}carbonyl)-N,N-dimethylbenzenesulphonamide], the inhibition at 10 µM in experiment [1] worked out at 46.5%. For the same compound, the IC50 in the experiment on RBL-2H3 cells is greater than 10 µg/mL.

In the case of `CCOC(=O)c1[nH]c(N2C(=O)C(O)=C(C(=O)c3ccccc3)C2c2ccc(OC)cc2)nc1C` (stereo not shown) [Molecule 12], the inhibition at 10 µM in experiment [1] was 69%. In the experiment on RBL-2H3 cells, the IC50 is greater than 10 µg/mL.

In the case of `N#CC1=C(N)Oc2[nH]nc(-c3ccccc3)c2C1c1cccc(OC(=O)c2ccco2)c1` (stereo not shown) [Molecule 57, 3-(6-amino-5-cyano-3-phenyl-1,4-dihydropyrano[2,3-c]pyrazol-4-yl)phenyl 2-furoate], the inhibition at 10 µM in experiment [1] is 42%. In addition, the IC50 in the experiment with RBL-2H3 cells was greater than 10 µg/mL.

Turning to `COc1ccc(OCC(=O)NCc2cc(-c3nn(C)c(=O)c4ccccc34)ccc2C)cc1` [Molecule 72, 2-(4-methoxyphenoxy)-N-[2-methyl-5-(3-methyl-4-oxo-3,4-dihydro-1-phthalazinyl)benzyl]acetamide], the inhibition at 10 µM in experiment [1] came to 28%. The IC50 with RBL-2H3 cells is roughly 10 µg/mL (≈ 22.5 µM).

As to `O=C(C1=C(O)C(=O)N(CCCN2CCOCC2)C1c1ccncc1)c1ccc2c(c1)OCCO2` (stereo not shown) [Molecule 83, 4-(2,3-dihydro-1,4-benzodioxin-6-ylcarbonyl)-3-hydroxy-1-[3-(4-morpholinyl)propyl]-5-(4-pyridinyl)-1,5-dihydro-2H-pyrrol-2-one], the inhibition at 10 µM in experiment [1] turned out to be 19%. Besides, the IC50 in the experiment on RBL-2H3 cells was roughly 10 µg/mL (≈ 21.5 µM).
